The values below come from publication PMC10974930, “Synthesis and Antioxidant Activities of Novel Pyrimidine Acrylamides as Inhibitors of Lipoxygenase: Molecular Modeling and In Silico Physicochemical Studies” (Molecules, 2024).

The experiment deals with T1, soybean lipoxygenase (Glycine max, UniProt P08170).
T1 construct: gene LOX1.1
T1 sequence (P08170 1-839): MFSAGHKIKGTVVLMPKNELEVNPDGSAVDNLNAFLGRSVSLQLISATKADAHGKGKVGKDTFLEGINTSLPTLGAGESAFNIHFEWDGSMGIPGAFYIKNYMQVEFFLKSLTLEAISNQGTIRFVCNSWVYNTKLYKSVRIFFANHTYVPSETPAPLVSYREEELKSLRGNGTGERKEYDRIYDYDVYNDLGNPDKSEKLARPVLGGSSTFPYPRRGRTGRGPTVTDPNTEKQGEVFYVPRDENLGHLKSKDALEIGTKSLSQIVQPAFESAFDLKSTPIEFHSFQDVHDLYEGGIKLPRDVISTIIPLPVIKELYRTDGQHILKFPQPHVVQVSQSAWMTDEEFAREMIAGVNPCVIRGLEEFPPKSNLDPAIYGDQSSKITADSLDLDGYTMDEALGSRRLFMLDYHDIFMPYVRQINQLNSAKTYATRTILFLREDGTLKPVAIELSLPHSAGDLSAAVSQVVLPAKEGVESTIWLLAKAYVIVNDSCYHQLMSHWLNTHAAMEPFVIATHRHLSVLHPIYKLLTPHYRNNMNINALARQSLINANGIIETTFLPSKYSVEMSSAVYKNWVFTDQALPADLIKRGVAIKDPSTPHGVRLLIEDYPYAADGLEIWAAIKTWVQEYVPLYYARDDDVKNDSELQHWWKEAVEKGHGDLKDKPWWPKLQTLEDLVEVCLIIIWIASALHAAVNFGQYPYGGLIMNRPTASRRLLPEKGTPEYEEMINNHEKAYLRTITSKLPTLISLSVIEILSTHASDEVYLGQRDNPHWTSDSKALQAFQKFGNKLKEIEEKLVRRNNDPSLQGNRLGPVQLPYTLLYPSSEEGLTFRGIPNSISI
In words: UV assay at […] nm of sodium linoleate oxidation by soybean lipoxygenase (Sigma). To be noted: read-out: % Inhibition of LOX 100 μM or IC50 (μM) *. Type of experiment: biochemical.

Regarding `O=Nc1c(NC(=O)/C=C/c2cccs2)[nH]c(N2CCCCC2)nc1=O` [compound 5, (E)-N-(5-nitroso-6-oxo-2-(piperidin-1-yl)-3,6-dihydropyrimidin-4-yl)-3-(thiophen-2-yl)acrylamide], the IC50 stood at 10.7 µM.

On to `O=Nc1c(NC(=O)/C=C/c2cccc3ccccc23)[nH]c(N2CCCCC2)nc1=O` [compound 9, (E)-3-(naphthalen-1-yl)-N-(5-nitroso-6-oxo-2-(piperidin-1-yl)-3,6-dihydropyrimidin-4-yl)acrylamide], for which the IC50 was 1.1 µM.

As usually defined, the IC50 is the point on the concentration scale where inhibition reaches its midpoint.
